Experimental data reported in patent US20050042213A1, “Methods and pharmaceutical compositions for modulating heparanase activation and uses thereof” (InSight Biopharmaceuticals Ltd., priority 2003, published 2005).
Where a SMILES comes first, the peptide text is derived from it. [ ]: non-standard residue; d: D form. The star is where a group is joined. AMC = Cc1cc(=O)oc2cc(N*)ccc12; Nle = CCCC[CH](N)C(=O)O; Cbz = O=C(OCc1ccccc1)*; NHOH = ON*

Biological target: T1, pro-heparanase (H60) (Homo sapiens, UniProt Q9Y251, K307R)
T1 sequence (Q9Y251 36-543 K307R): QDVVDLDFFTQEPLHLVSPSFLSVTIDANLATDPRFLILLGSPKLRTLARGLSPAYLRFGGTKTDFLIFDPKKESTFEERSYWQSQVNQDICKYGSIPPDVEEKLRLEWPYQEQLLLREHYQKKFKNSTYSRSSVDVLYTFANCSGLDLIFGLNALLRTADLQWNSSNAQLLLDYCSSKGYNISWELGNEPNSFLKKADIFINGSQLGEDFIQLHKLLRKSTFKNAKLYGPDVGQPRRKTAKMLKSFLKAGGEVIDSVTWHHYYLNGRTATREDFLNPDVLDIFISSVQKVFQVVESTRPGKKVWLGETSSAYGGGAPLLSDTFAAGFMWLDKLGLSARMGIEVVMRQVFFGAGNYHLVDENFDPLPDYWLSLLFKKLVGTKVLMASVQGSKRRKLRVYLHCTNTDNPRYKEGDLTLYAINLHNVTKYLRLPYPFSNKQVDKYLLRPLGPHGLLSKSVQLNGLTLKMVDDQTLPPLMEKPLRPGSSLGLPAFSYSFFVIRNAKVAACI
Assay: Pro-heparanase activation in a cell-based assay (293 cells, DMB assay)
Conditions: inhibition of pro-heparanase activation; Table 7, 5-(5-Phenyl-furan-2-ylmethylene)rhodanine analogs

Row | IC50 [µM] | Compound
1 | 0.52 | O=C(O)CCCCCN1C(=O)C(=Cc2ccc(-c3ccc(Cl)cc3)o2)SC1=S [Compound 2]
2 | 14.3 | O=C(O)CCCN1C(=O)C(=Cc2ccc(-c3ccccc3[N+](=O)[O-])o2)SC1=S [Compound 3]
3 | 2.3 | O=C(O)CCN1C(=O)C(=Cc2ccc(-c3ccccc3)o2)SC1=S [Compound 7]
4 | 6 | O=C(O)CCN1C(=O)C(=Cc2ccc(-c3ccccc3Cl)o2)SC1=S [Compound 8]
5 | 3 | O=C(O)CCN1C(=O)C(=Cc2ccc(-c3ccc(Cl)cc3Cl)o2)SC1=S [Compound 9]
6 | 30 | O=C(O)CCN1C(=O)C(=Cc2ccc(-c3ccccc3[N+](=O)[O-])o2)SC1=S [Compound 10]
7 | 2.8 | O=C(O)CCN1C(=O)C(=Cc2ccc(-c3ccc([N+](=O)[O-])cc3)o2)SC1=S [Compound 11]
8 | 32 | O=C(O)CN1C(=O)C(=Cc2ccc(-c3ccccc3Cl)o2)SC1=S [Compound 14]
9 | 2 | O=C(O)CN1C(=O)C(=Cc2ccc(-c3cccc(Cl)c3)o2)SC1=S [Compound 15]
10 | 3.8 | O=C(O)CN1C(=O)C(=Cc2ccc(-c3ccc(Cl)cc3)o2)SC1=S [Compound 16]
11 | 20 | O=C(O)CN1C(=O)C(=Cc2ccc(-c3cc(Cl)ccc3Cl)o2)SC1=S [Compound 17]
12 | 18 | O=C(O)CN1C(=O)C(=Cc2ccc(-c3ccc(Cl)cc3Cl)o2)SC1=S [Compound 18]
13 | 29 | O=C(O)CN1C(=O)C(=Cc2ccc(-c3ccc([N+](=O)[O-])cc3Cl)o2)SC1=S [Compound 20]
14 | 27 | O=C(O)CN1C(=O)C(=Cc2ccc(-c3ccc(I)cc3)o2)SC1=S [Compound 22]
15 | 37 | O=C(O)CN1C(=O)C(=Cc2ccc(-c3ccccc3[N+](=O)[O-])o2)SC1=S [Compound 24]
16 | 21 | Cc1cc([N+](=O)[O-])ccc1-c1ccc(C=C2SC(=S)N(CC(=O)O)C2=O)o1 [Compound 25]
17 | 7 | O=C(O)CN1C(=O)C(=Cc2ccc(-c3cccc(C(F)(F)F)c3)o2)SC1=S [Compound 26]
18 | 46 | O=C(O)CN1C(=O)C(=Cc2ccc(-c3cccc(C(=O)O)c3)o2)SC1=S [Compound 27]
19 | 41 | O=C1C(=Cc2ccc(-c3cccc([N+](=O)[O-])c3)o2)SC(=S)N1CCS(=O)(=O)O [Compound 35]
20 | 13 | O=C1NC(=S)SC1=Cc1ccc(-c2ccc(Br)cc2)o1 [Compound 36]
21 | 18 | Cc1ccc(-c2ccc(C=C3SC(S)=NC3=O)o2)cc1Cl [Compound 37]
22 | 250 | O=C1C(=Cc2ccc(-c3ccc([N+](=O)[O-])cc3Cl)o2)SC(=S)N1c1ccccc1 [Compound 46]
23 | 5 | O=C(O)c1cccc(-c2ccc(C=C3SC(=S)N(c4ccccc4)C3=O)o2)c1 [Compound 47]
24 | 0.95 | O=C(O)c1ccc(-c2ccc(C=C3SC(=S)N(c4ccccc4)C3=O)o2)cc1 [Compound 48]
25 | 13 | O=C(O)c1ccc(-c2ccc(C=C3SC(=S)N(c4cccc([N+](=O)[O-])c4)C3=O)o2)cc1 [Compound 56]
26 | 129 | O=C1C(=Cc2ccc(-c3cccc(Cl)c3Cl)o2)SC(=S)N1c1ccccc1 [Compound 1013-0169]

Same assay, conditions: inhibition of pro-heparanase activation; Table 8, 5-(Heteroaryl-2-ylmethylene)rhodanine analogs

Row | IC50 [µM] | Compound
27 | 52 | Cc1c(N2C(=O)C(=Cc3ccco3)SC2=S)c(=O)n(-c2ccccc2)n1C [Compound 76]

Same assay, conditions: inhibition of pro-heparanase activation; Table 11, heparin-binding compounds

Row | IC50 [µM] | Compound
28 | 2.61 | C=CCn1c(=O)/c(=C\C=C2/Nc3c(sc(C)c3C)N2CC)s/c1=C\c1sc(-c2ccccc2)c(-c2ccccc2)[n+]1CC [Compound 113]
29 | 7 | C=CCn1c(=O)/c(=C\C=C2\C=CN(CC)c3ccccc32)s/c1=C\c1sc(-c2ccccc2)c(-c2ccccc2)[n+]1CC [Compound 114]
30 | 12 | CCN1C=C/C(=C/C=c2/s/c(=C\c3sc(-c4ccccc4)c(-c4ccccc4)[n+]3CC)n(CC)c2=O)c2ccccc21 [Compound 115]
31 | 3 | CN(C)c1ccc(/C=C/C2=[N+](C)c3ccccc3C2(C)C)cc1 [Compound 116]
32 | 9 | CN(C)c1ccc(/C=C/c2sc3ccc4ccccc4c3[n+]2C)cc1 [Compound 117]
33 | 6 | CC[n+]1c(/C=C/Nc2ccccc2)sc2c3ccccc3sc21 [Compound 118]
34 | 1.74 | CCN1/C(=C/C=C/c2sc3ccc(OC)cc3[n+]2CC)Sc2ccc3ccccc3c21 [Compound 119]
35 | 3.5 | CCC(/C=C1\Sc2ccc3ccccc3c2N1CC)=C\c1sc2ccc(-c3ccccc3)cc2[n+]1CC [Compound 120]
36 | 5.27 | CC[n+]1ccc(/C=C/C=C2\Sc3ccc4ccccc4c3N2C)c2ccccc21 [Compound 121]
37 | 16 | CN1\C(=C/C=C/C=C/C=C/C2=[N+](C)c3ccccc3C2(C)C)C(C)(C)c2ccccc21 [Compound 122]

Same assay, conditions: inhibition of pro-heparanase activation; Table 12, known inhibitors of cathepsin B activity

Row | IC50 [µM] | Compound
38 | 7.4 | CCCCC(C=O)NC(=O)C(CC(C)C)NC(=O)C(CC(C)C)NC(C)=O (stereo not drawn) [Compound 123, reference compound] (Ac-Leu-Leu-[Nle]-aldehyde; configuration not given here)
39 | 10 | CSCCC(C=O)NC(=O)C(CC(C)C)NC(=O)C(CC(C)C)NC(C)=O (stereo not drawn) [Compound 124, reference compound] (Ac-Leu-Leu-Met-aldehyde; configuration not given here)
40 | 23 | CCCNC(=O)C1OC1C(=O)NC(C(=O)N1CCCC1C(=O)OC)C(C)CC (stereo not drawn) [Compound 125, reference compound]
41 | 26 | CC(=O)NC(CC(C)C)C(=O)NC(CC(C)C)C(=O)NC(C=O)CCCNC(=N)N (stereo not drawn) [Compound 126, reference compound]
42 | 32 | CC(C)CC(NC(=O)C1OC1C(=O)O)C(=O)NCCCCNC(=N)N (stereo not drawn) [Compound 127, reference compound]

Test system: 293 cell extract
Assay: Cleavage of Z-Pro-Lys-Lys-Glu-AMC (Peptide 1) by 293 cell extract and its inhibition by protease inhibitors
Format: biochemical, human
Design: % Inhibition: concentration or dose not given beside the values
Conditions: different pHs, pH range 4.5-7.5
Description: Following a 20 minutes incubation at 37° C., fluorescence released due to proteolytic activity was determined using a BMG POLARstar™ Galaxy fluorometer: excitation at 390 nm and emission at 460 nm.

Row | Compound | cleavage by 293 cell extract
43 | Z-Glu-His-Tyr-Gln-AMC (Cbz-EHYQ-{AMC}; SMILES Cc1cc(=O)oc2cc(NC(=O)[C@H](CCC(N)=O)NC(=O)[C@H](Cc3ccc(O)cc3)NC(=O)[C@H](Cc3c[nH]cn3)NC(=O)[C@H](CCC(=O)O)NC(=O)OCc3ccccc3)ccc12) [Peptide 2] | not cleaved

Same assay, conditions: inhibition of Z-Pro-Lys-Lys-Glu-AMC cleavage by 293 cell extract

Row | Compound | % Inhibition [%]
44 | CSCC[C@@H](C=O)NC(=O)[C@H](CC(C)C)NC(=O)[C@H](CC(C)C)NC(C)=O [Calpain inhibitor II, N-Acetyl-Leu-Leu-Met-CHO] (Ac-Leu-Leu-Met-aldehyde) | 98
45 | O=C[C@H](Cc1ccc(O)cc1)NC(=O)[C@H](Cc1ccccc1)NC(=O)OCc1ccccc1 [Cathepsin L inhibitor II] (Cbz-Phe-Tyr-aldehyde) | 97
46 | CC(C)C[C@H](NC(=O)[C@H]1O[C@@H]1C(=O)O)C(=O)NCCCCN=C(N)N [Compound E-64] | 93
47 | CC(=O)N[C@@H](CC(C)C)C(=O)N[C@@H](CC(C)C)C(=O)N[C@H](C=O)CCCNC(=N)N [Leupeptin] | 97
48 | O=C(O)[C@@H](Cc1ccccc1)NS(=O)(=O)c1ccc(-c2ccccc2)cc1 [MMP 2,9 inhibitor] | 0
49 | CC(C)CC(NC(=O)C1CCCN1C(=O)OCc1ccccc1)C(=O)NCC(=O)NO (stereo not drawn) [Z-Pro-Leu-Gly hydroxamate] (Cbz-Pro-Leu-Gly-{NHOH}; configuration not given here) | 0
50 | N=C(N)c1ccccc1 [benzamidine] | 13

Test system: not listed separately
Assay: Heparin binding of compounds (heparin sepharose CL-6B beads)
Conditions: compound at 5 uM
Description: Heparin binding—5 μM of the selected compound was prepared in a solution of PBS pH 7.2 with 0.05% Tween and 5% DMSO. […] Excess water was discarded by filtration using a Multiscreen vacuum manifold (Millipore, Cat No. MAVM 096 00). 200 μl of each compound tested was transferred to three wells of the filter plate—one empty well, one with sepharose CL-6B and one with heparin sepharose CL-6B. Plates were rotated for 2 hrs at 37° C. followed by filtration to a new 96 well clear plate, using a Multiscreen vacuum manifold. The absorbance spectrum of the filtrate in each well was determined using a VERSAmax plate reader (Molecular devices). Percent of heparin binding was calculated from the binding to heparin sepharose CL-6B as compared to the binding of the compound to the control sepharose CL-6B beads.

Row | Binding to heparin (5 uM) [%] | Compound
51 | 73 | C=CCn1c(=O)/c(=C\C=C2/Nc3c(sc(C)c3C)N2CC)s/c1=C\c1sc(-c2ccccc2)c(-c2ccccc2)[n+]1CC [Compound 113]
52 | 48 | C=CCn1c(=O)/c(=C\C=C2\C=CN(CC)c3ccccc32)s/c1=C\c1sc(-c2ccccc2)c(-c2ccccc2)[n+]1CC [Compound 114]
53 | 66 | CCN1C=C/C(=C/C=c2/s/c(=C\c3sc(-c4ccccc4)c(-c4ccccc4)[n+]3CC)n(CC)c2=O)c2ccccc21 [Compound 115]
54 | 71 | CN(C)c1ccc(/C=C/C2=[N+](C)c3ccccc3C2(C)C)cc1 [Compound 116]
55 | 66 | CN(C)c1ccc(/C=C/c2sc3ccc4ccccc4c3[n+]2C)cc1 [Compound 117]
56 | 61 | CC[n+]1c(/C=C/Nc2ccccc2)sc2c3ccccc3sc21 [Compound 118]
57 | 51 | CCN1/C(=C/C=C/c2sc3ccc(OC)cc3[n+]2CC)Sc2ccc3ccccc3c21 [Compound 119]
58 | 61 | CCC(/C=C1\Sc2ccc3ccccc3c2N1CC)=C\c1sc2ccc(-c3ccccc3)cc2[n+]1CC [Compound 120]
59 | 47 | CC[n+]1ccc(/C=C/C=C2\Sc3ccc4ccccc4c3N2C)c2ccccc21 [Compound 121]
60 | 65 | CN1\C(=C/C=C/C=C/C=C/C2=[N+](C)c3ccccc3C2(C)C)C(C)(C)c2ccccc21 [Compound 122]
